pKi: −log10 of the molar value.
These compounds were tested against T1, human capsaicin receptor (VR1) (Homo sapiens, UniProt Q8NER1) (assay: Capsaicin receptor binding assay ([3H]RTX competition)). Details: read-out: Ki.
T1 construct: transfected with the pBK-CMV expression construct encoding the full length human capsaicin receptor; expressed in transfected cells
Method in brief: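 Membranes from HEK293 cells stably expressing full-length human VR1; competition against 60 pM [3H]RTX, 60 min at 37 °C in HEPES/sucrose buffer pH 7.4 with 0.25 mg/ml BSA. Non-specific binding defined with 1 μM unlabelled RTX; alpha1-acid glycoprotein added after termination on ice.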

T1 sequence (Q8NER1 whole entry): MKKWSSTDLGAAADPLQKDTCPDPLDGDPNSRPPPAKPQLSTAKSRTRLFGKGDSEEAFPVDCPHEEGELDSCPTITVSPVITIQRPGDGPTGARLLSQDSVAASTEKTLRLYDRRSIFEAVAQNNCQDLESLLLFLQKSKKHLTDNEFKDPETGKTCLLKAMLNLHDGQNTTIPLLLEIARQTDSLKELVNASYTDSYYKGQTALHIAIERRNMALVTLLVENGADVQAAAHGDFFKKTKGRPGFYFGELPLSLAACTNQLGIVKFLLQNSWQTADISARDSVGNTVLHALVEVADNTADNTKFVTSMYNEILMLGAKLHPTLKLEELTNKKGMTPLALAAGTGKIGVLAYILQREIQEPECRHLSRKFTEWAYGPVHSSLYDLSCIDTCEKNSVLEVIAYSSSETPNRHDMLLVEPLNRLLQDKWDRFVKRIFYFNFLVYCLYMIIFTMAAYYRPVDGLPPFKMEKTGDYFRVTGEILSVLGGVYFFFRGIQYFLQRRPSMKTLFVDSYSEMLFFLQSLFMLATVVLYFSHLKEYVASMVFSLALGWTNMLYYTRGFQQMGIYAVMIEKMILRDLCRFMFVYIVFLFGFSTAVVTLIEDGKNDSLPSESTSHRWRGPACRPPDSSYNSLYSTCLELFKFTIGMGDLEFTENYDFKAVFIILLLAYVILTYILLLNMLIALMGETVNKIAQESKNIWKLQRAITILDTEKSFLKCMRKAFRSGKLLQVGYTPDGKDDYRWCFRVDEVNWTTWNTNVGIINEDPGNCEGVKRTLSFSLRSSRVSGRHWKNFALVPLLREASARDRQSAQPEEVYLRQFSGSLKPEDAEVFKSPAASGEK

SMILES	pKi
COc1cc(NC(=O)c2ccc(-c3ccccc3)cc2)ccc1Cl [Compound 189, Biphenyl-4-carboxylic acid (4-chloro-3-methoxy-phenyl)-amide]	> 6.00
O=C(Nc1ccc(C(F)(F)F)nc1)c1ccc(-c2ncccc2C(F)(F)F)cc1[N+](=O)[O-] [Compound 20, 2-Nitro-N-(6-trifluoromethyl-pyridin-3-yl)-4-(3-trifluoromethyl-pyridin-2-yl)-benzamide]	> 6.00
COc1ccccc1-c1ccc(C(=O)Nc2ccc(C(C)C)cc2)cn1 [Compound 378, N-(4-Isopropyl-phenyl)-6-(2-methoxy-phenyl)-nicotinamide]	> 6.00
CC(C)(C)c1ccc(NC(=O)c2ccc(-c3c(F)cccc3F)nc2)cc1 [Compound 438, N-(4-tert-Butyl-phenyl)-6-(2,6-difluoro-phenyl)-nicotinamide]	> 6.00
Cc1cc(NC(=O)c2ccc(-c3ncccc3Cl)cc2)ccc1C(C)C [Compound 26, 4-(3-Chloro-pyridin-2-yl)-N-(4-isopropyl-3-methyl-phenyl)-benzamide]	> 6.00
CCCCc1ccc(-c2ccc(C(=O)Nc3cccc(OC)c3)cn2)cc1 [Compound 137, 6-(4-Butyl-phenyl)-N-(3-methoxy-phenyl)-nicotinamide]	> 6.00
CC(C)(C)c1ccc(NC(=O)c2ccc(-c3ncccc3NS(=O)(=O)c3ccccc3)cc2)cc1 [Compound 25, 4-(3-Benzenesulfonylamino-pyridin-2-yl)-N-(4-tert-butyl-phenyl)-benzamide]	> 6.00
CCCc1ccc(NC(=O)c2ccc(-c3ccccc3F)nc2)cc1 [Compound 91, 6-(2-Fluoro-phenyl)-N-(4-propyl-phenyl)-nicotinamide]	> 6.00
O=C(Nc1ccc(Br)c(Cl)c1)c1ccc(-c2ccc(F)cc2)nc1 [Compound 320, N-(4-Bromo-3-chloro-phenyl)-6-(4-fluoro-phenyl)-nicotinamide]	> 6.00

Each compound was assayed against T2, human capsaicin receptor (Homo sapiens, UniProt Q8NER1) (assay: Calcium mobilization assay, determination of agonist activity). Details: capsaicin positive control, cells expressing human capsaicin receptor; read-out: approximate EC90 concentration.
T2 construct: transfected with the pBK-CMV expression construct encoding the full length human capsaicin receptor; expressed in transfected cells
T2 sequence (Q8NER1 whole entry): as above
Type: cell-based
Protocol: This Example illustrates representative calcium mobilization assays for use in evaluating test compounds for agonist and antagonist activity.
Cells transfected with expression plasmids (as described in Example 4) and thereby expressing human capsaicin receptor are seeded and grown to 70-90% confluency in FALCON black-walled, clear-bottomed 96-well plates (#3904, BECTON-DICKINSON, Franklin Lakes, N.J.). […]
To measure the ability of a test compound to agonize or antagonize a calcium mobilization response in cells expressing capsaicin receptors to capsaicin or other vanilloid agonist, the EC50 of the agonist capsaicin is first determined. […] Capsaicin-induced calcium mobilization is monitored using either FLUOROSKAN ASCENT (Labsystems; Franklin, Mass.) or FLIPR (fluorometric imaging plate reader system; Molecular Devices, Sunnyvale, Calif.) instruments. […] In this equation, y is the maximum fluorescence signal, x is the concentration of the agonist or antagonist (in this case, capsaicin), a is the Emax, b corresponds to the EC50 value and c is the Hill coefficient. […]
The ability of a test compound to act as an agonist of the capsaicin receptor is determined by measuring the fluorescence response of cells expressing capsaicin receptors elicited by the compound as function of compound concentration.

SMILES	EC90 [nM]
COc1cc(CNC(=O)CCCC/C=C/C(C)C)ccc1O [capsaicin]	~100
